Source: article PMC7002685, “Inhibition of vascular calcification by inositol phosphates derivatized with ethylene glycol oligomers” (Nature Communications, 2020)

Tests used:
[1] = target: T1, Protein Tyrosine Kinase, Insulin Receptor (Homo sapiens, UniProt P06213); test: Off-target 174990; format: biochemical
T1 construct: purchased Eurofins Panlabs Discovery Services Taiwan, Ltd
Description: (§1) The potential off-target activity of 10 µM (OEG2)2-IP4 was assessed against a panel of 87 enzymes, receptors, or ion channels that are used in standard safety pharmacology screens.
(§2) 3.2. Off-target screening assay
(§3) The experiments were conducted by a contract research organization (Eurofins Panlabs Discovery Services Taiwan, Ltd.) and details on the respective assays can be retrieved via the catalog number provided in Supplementary Table 11 from the company’s webpage
(§4) (https://www.eurofinsdiscoveryservices.com/). […]
(§5) At sacrifice the left tibia of animals of the rat model with dietary adenine/high-phosphate-induced uremia and VC was collected, fixed with 70% v/v EtOH and embedded in methyl methacrylate. The trabecular bone compartment is known to be the most metabolic active i.e. actively re-structured bone compartment in CKD. Therefore, histomorphometric and micro-computed tomography (µCT) analysis of bone was performed on the trabecular compartment. Tibial sections were Goldner-stained for histomorphometric analysis of the proximal metaphysis using the AxioVision Release 4.5 software, as […]
(§6) described previously5. […]

[2] = target: T2, (Homo sapiens, UniProt P25100); test: Off-target 203400; format: binding
T2 construct: purchased Eurofins Panlabs Discovery Services Taiwan, Ltd
Description: as §1, §2, §3, §4, §5, §6

[3] = test system: Calcium Channel L-Type, Benzothiazepine; test: Off-target 214510; format: binding, Rat; settings: 10 µM
Description: as §1, §2, §3, §4, §5, §6

Cannabinoid CB1 = target: T3, Cannabinoid CB1 (Homo sapiens, UniProt P21554); test: Off-target 217030; format: binding
T3 construct: purchased Eurofins Panlabs Discovery Services Taiwan, Ltd
Description: as §1, §2, §3, §4, §5, §6

Chemokine CCR1 = target: T4, Chemokine CCR1 (Homo sapiens, UniProt P32246); test: Off-target 217510; format: binding
T4 construct: purchased Eurofins Panlabs Discovery Services Taiwan, Ltd
Description: as §1, §2
(§7) The experiments were conducted by a contract research organization (Eurofins Panlabs Discovery
(§8) Services Taiwan, Ltd.) and details on the respective assays can be retrieved via the catalog number
(§9) provided in Supplementary Table 11 from the company’s webpage
as §4

[4] = test system: GABAA, Flunitrazepam, Central; test: Off-target 226600; format: binding, Rat; settings: 10 µM
Description: as §1, §2, §7, §8, §9, §4

Glutamate, AMPA = test: Off-target 232600; format: binding, Rat; settings: 10 µM
Description: as §1, §2, §3, §4, §5, §6

[5] = test system: Glutamate, NMDA, Phencyclidine; test: Off-target 233000; format: binding, Rat; settings: 10 µM
Description: as §1, §2, §3, §4, §5, §6

[6] = target: T5, Leukotriene, Cysteinyl CysLT1 (Homo sapiens, UniProt Q9Y271); test: Off-target 250460; format: binding
T5 construct: purchased Eurofins Panlabs Discovery Services Taiwan, Ltd
Description: as §1, §2, §7, §8, §9, §4

Opiate μ (OP3, MOP) = target: T6, Opiate μ (OP3, MOP) (Homo sapiens, UniProt P35372); test: Off-target 260410; format: binding
T6 construct: purchased Eurofins Panlabs Discovery Services Taiwan, Ltd
Description: as §1, §2, §3, §4, §5, §6

[7] = PK s.c. in rats with vitamin D and warfarin-induced VC; format: in vivo; settings: Sprague-Dawley, rat, plasma, sc, 50 mg/kg, 50 mg/kg s.c.
vascular calcification = test: Vitamin D3 (oral) + warfarin diet rat model of VC

T3 sequence (P21554 whole entry): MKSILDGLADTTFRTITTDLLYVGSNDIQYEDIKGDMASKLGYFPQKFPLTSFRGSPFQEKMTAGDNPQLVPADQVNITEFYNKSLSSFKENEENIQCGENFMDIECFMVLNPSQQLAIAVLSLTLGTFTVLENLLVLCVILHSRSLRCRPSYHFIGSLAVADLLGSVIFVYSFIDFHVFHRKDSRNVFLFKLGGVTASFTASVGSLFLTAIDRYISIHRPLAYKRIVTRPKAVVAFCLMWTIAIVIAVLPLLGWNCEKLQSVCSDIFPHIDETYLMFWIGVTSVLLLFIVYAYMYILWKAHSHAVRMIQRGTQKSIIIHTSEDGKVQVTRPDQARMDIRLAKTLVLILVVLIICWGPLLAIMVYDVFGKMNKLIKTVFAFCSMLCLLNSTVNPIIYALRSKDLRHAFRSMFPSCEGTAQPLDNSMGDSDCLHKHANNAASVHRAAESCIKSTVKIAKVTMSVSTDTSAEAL
T6 sequence (P35372 whole entry): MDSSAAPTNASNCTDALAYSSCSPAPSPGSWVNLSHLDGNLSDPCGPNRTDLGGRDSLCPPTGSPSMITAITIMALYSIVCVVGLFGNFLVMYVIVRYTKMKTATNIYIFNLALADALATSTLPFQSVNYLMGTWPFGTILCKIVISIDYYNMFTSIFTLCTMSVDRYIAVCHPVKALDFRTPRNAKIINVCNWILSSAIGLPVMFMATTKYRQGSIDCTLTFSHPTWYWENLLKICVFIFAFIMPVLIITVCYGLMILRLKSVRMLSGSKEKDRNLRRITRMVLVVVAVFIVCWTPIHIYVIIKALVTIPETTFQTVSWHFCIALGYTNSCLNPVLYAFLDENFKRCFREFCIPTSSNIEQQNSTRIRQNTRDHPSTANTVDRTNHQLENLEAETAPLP
T5 sequence (Q9Y271 whole entry): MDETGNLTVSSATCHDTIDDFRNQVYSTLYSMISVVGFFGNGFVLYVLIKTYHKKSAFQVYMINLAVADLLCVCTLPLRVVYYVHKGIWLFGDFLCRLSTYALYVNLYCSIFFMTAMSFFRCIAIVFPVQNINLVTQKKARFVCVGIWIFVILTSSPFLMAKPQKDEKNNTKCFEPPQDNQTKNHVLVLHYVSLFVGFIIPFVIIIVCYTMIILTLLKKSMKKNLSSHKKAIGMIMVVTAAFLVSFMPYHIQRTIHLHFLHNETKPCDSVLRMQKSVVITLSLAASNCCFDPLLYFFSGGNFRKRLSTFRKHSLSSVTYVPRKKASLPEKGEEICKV
T2 sequence (P25100 whole entry): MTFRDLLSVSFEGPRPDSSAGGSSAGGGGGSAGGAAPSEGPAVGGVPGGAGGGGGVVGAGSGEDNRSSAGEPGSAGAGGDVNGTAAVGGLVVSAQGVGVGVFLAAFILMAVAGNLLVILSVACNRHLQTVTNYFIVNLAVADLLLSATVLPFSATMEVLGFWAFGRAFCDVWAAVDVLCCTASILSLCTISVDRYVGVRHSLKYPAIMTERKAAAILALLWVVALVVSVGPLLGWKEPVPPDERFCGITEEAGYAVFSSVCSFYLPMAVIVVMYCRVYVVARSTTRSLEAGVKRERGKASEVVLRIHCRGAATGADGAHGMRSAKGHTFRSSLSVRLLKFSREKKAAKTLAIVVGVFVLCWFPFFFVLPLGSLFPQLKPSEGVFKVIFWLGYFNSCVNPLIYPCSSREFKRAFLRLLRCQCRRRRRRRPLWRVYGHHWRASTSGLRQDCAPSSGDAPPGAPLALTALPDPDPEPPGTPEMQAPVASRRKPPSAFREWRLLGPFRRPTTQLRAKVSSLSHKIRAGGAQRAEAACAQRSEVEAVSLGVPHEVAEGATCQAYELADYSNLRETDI
T4 sequence (P32246 whole entry): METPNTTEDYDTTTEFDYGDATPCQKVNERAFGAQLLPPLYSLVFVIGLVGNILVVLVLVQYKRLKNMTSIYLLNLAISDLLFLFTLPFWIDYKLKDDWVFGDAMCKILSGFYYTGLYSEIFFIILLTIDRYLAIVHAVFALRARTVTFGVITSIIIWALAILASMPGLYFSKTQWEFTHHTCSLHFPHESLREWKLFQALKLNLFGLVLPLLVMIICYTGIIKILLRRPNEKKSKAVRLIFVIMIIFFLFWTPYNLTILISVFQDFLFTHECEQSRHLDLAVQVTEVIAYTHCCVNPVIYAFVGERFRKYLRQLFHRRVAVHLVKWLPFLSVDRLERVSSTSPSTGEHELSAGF
T1 sequence (P06213 28-1382): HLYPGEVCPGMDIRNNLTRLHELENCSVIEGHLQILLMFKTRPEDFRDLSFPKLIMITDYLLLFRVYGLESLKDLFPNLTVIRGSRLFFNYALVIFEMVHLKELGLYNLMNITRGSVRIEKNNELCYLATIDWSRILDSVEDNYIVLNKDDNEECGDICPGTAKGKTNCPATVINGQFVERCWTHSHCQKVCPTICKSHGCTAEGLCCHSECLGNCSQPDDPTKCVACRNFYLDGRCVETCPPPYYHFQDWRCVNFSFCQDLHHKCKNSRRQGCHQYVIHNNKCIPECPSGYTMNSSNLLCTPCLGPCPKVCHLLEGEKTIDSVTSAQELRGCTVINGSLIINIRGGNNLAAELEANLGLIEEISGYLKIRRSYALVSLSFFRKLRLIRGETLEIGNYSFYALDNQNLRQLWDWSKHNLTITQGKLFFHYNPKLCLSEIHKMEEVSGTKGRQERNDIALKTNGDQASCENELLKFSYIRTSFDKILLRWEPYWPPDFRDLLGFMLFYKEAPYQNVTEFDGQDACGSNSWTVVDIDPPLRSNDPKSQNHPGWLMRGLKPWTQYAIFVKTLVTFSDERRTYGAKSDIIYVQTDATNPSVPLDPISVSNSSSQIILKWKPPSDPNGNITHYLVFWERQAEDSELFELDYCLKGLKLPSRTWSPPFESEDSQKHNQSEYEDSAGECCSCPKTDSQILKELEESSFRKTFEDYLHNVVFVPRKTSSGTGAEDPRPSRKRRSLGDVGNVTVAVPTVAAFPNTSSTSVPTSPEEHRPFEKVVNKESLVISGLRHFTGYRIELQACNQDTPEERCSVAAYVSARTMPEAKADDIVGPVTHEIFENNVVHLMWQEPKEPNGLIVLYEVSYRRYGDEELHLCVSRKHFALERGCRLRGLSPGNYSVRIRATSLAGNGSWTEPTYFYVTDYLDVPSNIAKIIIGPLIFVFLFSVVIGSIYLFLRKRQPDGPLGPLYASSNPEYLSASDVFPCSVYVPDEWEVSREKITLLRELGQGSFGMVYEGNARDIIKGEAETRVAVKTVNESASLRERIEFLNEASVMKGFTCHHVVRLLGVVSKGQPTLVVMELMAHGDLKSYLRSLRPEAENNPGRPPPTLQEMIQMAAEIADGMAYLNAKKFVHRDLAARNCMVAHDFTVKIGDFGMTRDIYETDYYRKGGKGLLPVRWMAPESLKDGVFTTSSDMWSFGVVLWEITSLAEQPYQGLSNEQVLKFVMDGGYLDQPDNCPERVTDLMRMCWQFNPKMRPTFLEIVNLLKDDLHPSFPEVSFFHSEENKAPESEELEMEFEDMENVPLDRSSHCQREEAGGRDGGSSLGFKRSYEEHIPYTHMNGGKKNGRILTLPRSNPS

COCCOCCO[C@@H]1[C@@H](OP(=O)(O)O)[C@H](OCCOCCOC)[C@@H](OP(=O)(O)O)[C@@H](OP(=O)(O)O)[C@H]1OP(=O)(O)O [(OEG2)2-IP4, 4,6-Di-O-(methoxy-diethyleneglycol)-myo-inositol-1,2,3,5-tetrakis(phosphate)]
inhibition at 10 µM [1]: -22% | inhibition at 10 µM [2]: 10% | % Inhibition [3]: -7% | inhibition at 10 µM (Cannabinoid CB1): -7% | inhibition at 10 µM (Chemokine CCR1): -2% | % Inhibition [4]: -7% | % Inhibition (Glutamate, AMPA): 8% | % Inhibition [5]: 7% | inhibition at 10 µM [6]: 0% | inhibition at 10 µM (Opiate μ (OP3, MOP)): 11% | AUC(0-inf) ([7]; Healthy): 101 µM·h | CL/F ([7]; Healthy): 11 ± 1 mL/min/kg | Cmax ([7]; Healthy): 49 ± 7 µM | half-life ([7]; Healthy (before induction of calcification)): 3.92 ± 0.267 h | AUC(0-t) ([7]; Healthy, read-out: AUC0-1440 (converted)): 101 µM·h | MRT last ([7]; Healthy, read-out: MRT0-1440 (converted)): 2.27 h | animals alive (Figure 5d) (vascular calcification; 1x12.5, Day 0): 12 | survival (Figure 5d) (vascular calcification; 1x12.5, Day 0): 100% | animals alive (Figure 5d) (vascular calcification; 1x12.5, Day 4.99): 12 | survival (Figure 5d) (vascular calcification; 1x12.5, Day 4.99): 100% | animals alive (Figure 5d) (vascular calcification; 1x12.5, Day 5.01): 11 | survival (Figure 5d) (vascular calcification; 1x12.5, Day 5.01): 92% | animals alive (Figure 5d) (vascular calcification; 1x12.5, Day 5.99): 11 | survival (Figure 5d) (vascular calcification; 1x12.5, Day 5.99): 92% | animals alive (Figure 5d) (vascular calcification; 1x12.5, Day 6.01): 9 | survival (Figure 5d) (vascular calcification; 1x12.5, Day 6.01): 75% | animals alive (Figure 5d) (vascular calcification; 1x12.5, Day 6.99): 9 | survival (Figure 5d) (vascular calcification; 1x12.5, Day 6.99): 75% | animals alive (Figure 5d) (vascular calcification; 1x12.5, Day 7.01): 7 | survival (Figure 5d) (vascular calcification; 1x12.5, Day 7.01): 58% | animals alive (Figure 5d) (vascular calcification; 1x12.5, Day 7.99): 7 | survival (Figure 5d) (vascular calcification; 1x12.5, Day 7.99): 58% | animals alive (Figure 5d) (vascular calcification; 1x12.5, Day 8.01): 7 | survival (Figure 5d) (vascular calcification; 1x12.5, Day 8.01): 58% | animals alive (Figure 5d) (vascular calcification; 1x12.5, Day 8.1): 7 | survival (Figure 5d) (vascular calcification; 1x12.5, Day 8.1): 58% | calcification in the femoral artery (vascular calcification; 1x12.5 to 2x50 mg/kg/day): dose-dependently prevents calcification in the femoral artery | animals alive (Figure 5d) (vascular calcification; 1x25, Day 0): 12 | survival (Figure 5d) (vascular calcification; 1x25, Day 0): 100% | animals alive (Figure 5d) (vascular calcification; 1x25, Day 4.99): 12 | survival (Figure 5d) (vascular calcification; 1x25, Day 4.99): 100% | animals alive (Figure 5d) (vascular calcification; 1x25, Day 5.01): 12 | survival (Figure 5d) (vascular calcification; 1x25, Day 5.01): 100% | animals alive (Figure 5d) (vascular calcification; 1x25, Day 5.99): 12 | survival (Figure 5d) (vascular calcification; 1x25, Day 5.99): 100% | animals alive (Figure 5d) (vascular calcification; 1x25, Day 6.01): 10 | survival (Figure 5d) (vascular calcification; 1x25, Day 6.01): 83% | animals alive (Figure 5d) (vascular calcification; 1x25, Day 6.99): 10 | survival (Figure 5d) (vascular calcification; 1x25, Day 6.99): 83% | animals alive (Figure 5d) (vascular calcification; 1x25, Day 7.01): 8 | survival (Figure 5d) (vascular calcification; 1x25, Day 7.01): 67% | animals alive (Figure 5d) (vascular calcification; 1x25, Day 7.99): 8 | survival (Figure 5d) (vascular calcification; 1x25, Day 7.99): 67% | animals alive (Figure 5d) (vascular calcification; 1x25, Day 8.01): 8 | survival (Figure 5d) (vascular calcification; 1x25, Day 8.01): 67% | animals alive (Figure 5d) (vascular calcification; 1x25, Day 8.1): 8 | survival (Figure 5d) (vascular calcification; 1x25, Day 8.1): 67% | animals alive (Figure 5d) (vascular calcification; 1x50, Day 0): 19 | survival (Figure 5d) (vascular calcification; 1x50, Day 0): 100% | animals alive (Figure 5d) (vascular calcification; 1x50, Day 4.99): 19
